US4737583A, “Anthracyclin derivatives” (priority 1983, dated 1988)
≈ marks a conversion by molar mass, not a printed value. Where two headings read alike, the source gives them in different places.

Experiments:
[1] = solubility (description of the substance)
L1210 leukemia cells = assay: cell proliferation test, incorporation of C14-thymidine into DNA of L1210 leukemia cells; assay type: cell-based; conditions: Mus musculus
Procedure: The cytorhodins according to the invention are distinguished by a powerful cytostatic activity and gave the following action on L1210 leukemia cells in the cell proliferation test:
The inhibiting action is determined as follows (cell proliferation test):
L1210 cells in the exponential growth phase (5×10^3 /ml in RPMI 1640) are incubated with various concentrations of the test substance in a microtiter plate for 72 hours (37° C., 5% of CO2, 95% relative atmospheric humidity). Controls comprise cells which are incubated only with fresh medium. All the determinations are carried out as quadruplicate determinations. After 65 hours, 50 μl of C14-thymidine (1.5 μC/ml) are added in order to radioactively label the DNA of the cells. After incubation for 7 hours, the cells are filtered off with suction and the DNA is precipitated with 5% strength trichloroacetic acid and washed successively with water and methanol. After drying at 50° C., the radioactivity incorporated into the DNA is determined, after addition of 5 ml of scintillation liquid. The results are given as the relationships of the scintillation index after incubation with test substance in percent of the untreated control. […]

CCC1(O)CC(OC2CC(N(C)C)C(O)C(C)O2)c2c(O)c3c(c(O)c2C1OC1CC(N(C)C)C(OC2CC4OC5CC(=O)C(C)OC5OC4C(C)O2)C(C)O1)C(=O)c1cccc(O)c1C3=O (stereo not drawn) [Cytorhodin T]
solubility in methanol, ethyl acetate, chloroform and toluene [1]: readily soluble | solubility in water and hexane [1]: insoluble | IC50 (L1210 leukemia cells; L1210, 72 h): 2 ng/mL (≈ 2.13 nM)

CCC1(O)CC(OC2CC(N(C)C)C(OC3CC4OC5CC(=O)C(C)OC5OC4C(C)O3)C(C)O2)c2c(O)c3c(c(O)c2C1OC1CC(N(C)C)C(O)C(C)O1)C(=O)c1cccc(O)c1C3=O (stereo not drawn) [Cytorhodin S]
solubility in methanol, ethyl acetate, chloroform and toluene [1]: readily soluble | solubility in water and hexane [1]: insoluble | IC50 (L1210 leukemia cells; L1210 leukemia cells, 72 hours, 37° C., incorporation of radioactive thymidine reduced by 50% compared with the control, read-out: IC50): 0.3 ng/mL (≈ 0.319 nM)
